From patent US10144742B2 (Millennium Pharmaceuticals, Inc., priority 2014, dated 2018) come the findings set out here.

Like-named read-outs stand apart in the source and are kept apart here.

Assay [1] has as its target hNAMPT protein (Homo sapiens (Human), UniProt P43490). As to the kind of experiment: NAMPT enzyme assay (TR-FRET/HTRF, BodiPY ligand, anti 6His-Tb). The format is binding. The following applies: for inhibition at 1 µM: read-out: Percent Inhibition. The gist of the method: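 Compound or DMSO was incubated for 1 h at room temperature, protected from light, with BodiPY ligand and hNAMPT labelled by terbium anti-6His antibody. The 520 nm to 486 nm emission ratio after 320 nm excitation gave inhibition versus vehicle, from which concentration-response curves yielded IC50.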

In assay [2] the test system is PC3 cells. Description: PC3 growth inhibition (Cell-titer glo, 72 hours). Type of assay: cell-based. The note with it: Homo sapiens, read-out: Percent Inhibition (PC3 growth inhibition); for inhibition at 1.667 µM: compound concentration 1.667 μM. The gist of the method:
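Compounds in AIM serum-free medium were applied for 72 h at 37 °C, 5% CO2 to PC3 cells plated overnight from RPMI1640 culture. Luminescence after 10 min CellTiter-Glo, normalised to DMSO, gave % viability at 1 μM or 1.667 μM, or GI50/LD50.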

[3] abbreviates: NAMPT IC50 range class, read-out: IC50.
Where [4] appears, read: PC-3, PC3 cells, 72 hours, Cell-titer glo.
[5] abbreviates: PC-3, compound concentration 1 μM, PC3 cells, 72 hours, Cell-titer glo.

Sequence of hNAMPT protein (P43490 whole entry): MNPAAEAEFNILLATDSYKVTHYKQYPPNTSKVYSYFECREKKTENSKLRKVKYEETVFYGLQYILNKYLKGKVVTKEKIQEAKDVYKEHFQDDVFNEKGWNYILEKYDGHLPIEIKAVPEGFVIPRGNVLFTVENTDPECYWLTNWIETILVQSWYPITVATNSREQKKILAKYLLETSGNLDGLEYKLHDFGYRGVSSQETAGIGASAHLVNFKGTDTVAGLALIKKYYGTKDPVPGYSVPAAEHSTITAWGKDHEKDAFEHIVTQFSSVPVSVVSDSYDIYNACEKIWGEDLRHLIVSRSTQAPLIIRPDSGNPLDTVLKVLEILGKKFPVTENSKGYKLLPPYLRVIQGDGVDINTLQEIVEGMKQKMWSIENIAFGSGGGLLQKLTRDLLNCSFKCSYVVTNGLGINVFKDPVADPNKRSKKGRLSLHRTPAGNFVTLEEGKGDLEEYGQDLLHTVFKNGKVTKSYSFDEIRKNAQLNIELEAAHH

On to `O=C(NCCCc1ncc[nH]1)c1ccc2nc(N3CCCCC3)c(-c3ccc(F)cc3)nc2c1` [Compound I-232, 3-(4-fluorophenyl)-N-[3-(1H-imidazol-2-yl)propyl]-2-(piperidin-1-yl)quinoxaline-6-carboxamide], for which, in assay [1] (setting [3]), the IC50 is less than 100 nM. For the same molecule, the inhibition at 1 µM in assay [1] (compound concentration 1 μM) was greater than 99%. The inhibition at 1.667 µM in assay [2] (setting [4]) amounted to 2%.

In assay [1], `O=C(NCCCn1ccnc1)c1ccc2nc(Nc3ccccc3)c(-c3ccccc3)nc2c1` [Compound I-233, 2-Anilino-N-[3-(1H-imidazol-1-yl)propyl]-3-phenylquinoxaline-6-carboxamide] had an IC50 of 2000 to 10000 nM. Moreover, the inhibition at 1 µM in assay [1] is 43%; in assay [2] (PC-3, 72 h), -8%.

For `Cn1ccnc1CCCNC(=O)c1ccc2nc(-c3ccc(F)cc3)c(-c3ccc(F)cc3)nc2c1` [Compound I-234, 2,3-bis(4-fluorophenyl)-N-[3-(1-methyl-1H-imidazol-2-yl)propyl]quinoxaline-6-carboxamide], the IC50 in assay [1] (setting [3]) was less than 100 nM. The inhibition at 1 µM in assay [1] (compound concentration 1 μM) came to 100%; in assay [2] (setting [5]), 41%.

On to `NC(=O)c1cccc(-c2nc3ccc(C(=O)NCCCn4ccnc4)cc3nc2-c2ccccc2)c1` [Compound I-235, 2-(3-carbamoylphenyl)-N-[3-(1H-imidazol-1-yl)propyl]-3-phenylquinoxaline-6-carboxamide], for which, in assay [1] (setting [3]), the IC50 lay within 100 to 500 nM. Further, the inhibition at 1 µM is 79% in assay [1] (compound concentration 1 μM) and -8% in assay [2] (setting [5]).

On to `O=C(NCCCn1ccnc1)c1ccc2nc(-c3ccccc3)c(-c3cccs3)nc2c1` [Compound I-236, N-[3-(1H-imidazol-1-yl)propyl]-2-phenyl-3-(2-thienyl)quinoxaline-6-carboxamide], for which the IC50 in assay [1] (setting [3]) was less than 100 nM. The values for the inhibition at 1 µM in assay [1] (compound concentration 1 μM) and in assay [2] (setting [5]) were 99% and 1%, respectively.

Regarding `O=C(NCCn1cncn1)c1ccc2nc(-c3ccc(F)cc3)c(-c3ccc(F)cc3)nc2c1` [Compound I-237, 2,3-bis(4-fluorophenyl)-N-[2-(1H-1,2,4-triazol-1-yl)ethyl]quinoxaline-6-carboxamide], in assay [1] (setting [3]), the IC50 is 2000 to 10000 nM. The inhibition at 1 µM came to 21% in assay [1] (compound concentration 1 μM) and 96% in assay [2] (setting [5]).

Regarding `O=C(NCCc1cn2c(n1)SCC2)c1ccc2nc(-c3ccc(F)cc3)c(-c3ccc(F)cc3)nc2c1` [Compound I-238, N-[2-(2,3-dihydroimidazo[2,1-b][1,3]thiazol-6-yl)ethyl]-2,3-bis(4-fluorophenyl)quinoxaline-6-carboxamide], the IC50 in assay [1] (setting [3]) is 2000 to 10000 nM. Moreover, the values for the inhibition at 1 µM in assay [1] (compound concentration 1 μM) and in assay [2] (setting [5]) were 19% and 96%, respectively.

For the molecule `CC(C)(C)OC(=O)N1CCC(C2CCN(c3nc4ccc(C(=O)NCCn5ccnc5)cc4nc3-c3ccccc3)CC2)CC1` [Compound I-239, tert-Butyl 1′-(6-{[2-(1H-imidazol-1-yl)ethyl]carbamoyl}-3-phenylquinoxalin-2-yl)-4,4′-bipiperidine-1-carboxylate], the IC50 in assay [1] (setting [3]) was 2000 to 10000 nM. In addition, the figures for the inhibition at 1 µM in assay [1] (compound concentration 1 μM) and in assay [2] (setting [5]) were 25% and 14%, respectively.

`O=C(NCCCn1ccnc1)c1ccc2nc(C3=CCCCC3)c(-c3ccccc3)nc2c1` [Compound I-240, 2-(cyclohex-1-en-1-yl)-N-[3-(1H-imidazol-1-yl)propyl]-3-phenylquinoxaline-6-carboxamide]: in assay [1] (setting [3]), the IC50 was in the range of 100 to 500 nM. The values for the inhibition at 1 µM in assay [1] (compound concentration 1 μM) and in assay [2] (setting [5]) were 83% and -8%, respectively.

As for `COc1ccc(-c2nc3cc(C(=O)NCCCn4ccnc4)ccc3nc2-c2ccccc2)cc1` [Compound I-241, N-[3-(1H-imidazol-1-yl)propyl]-3-(4-methoxyphenyl)-2-phenylquinoxaline-6-carboxamide], in assay [1] (setting [3]), the IC50 is 500 to 1000 nM. Also, the inhibition at 1 µM in assay [1] (compound concentration 1 μM) amounted to 57%; in assay [2] (setting [5]) it was 1%.

Consider `O=C(NCCCn1ccnc1)c1ccc2nc(-c3cncnc3)c(-c3ccccc3)nc2c1` [Compound I-242, N-[3-(1H-imidazol-1-yl)propyl]-3-phenyl-2-(pyrimidin-5-yl)quinoxaline-6-carboxamide], for which the IC50 in assay [1] (setting [3]) lay within 1000 to 2000 nM. Moreover, the inhibition at 1 µM in assay [1] (compound concentration 1 μM) is 45%; in assay [2] (setting [5]), -7%.

As for `O=C(NCCCn1ccnc1)c1ccc2nc(N3CCC4(COC4)C3)c(-c3ccccc3)nc2c1` [Compound I-243, N-[3-(1H-imidazol-1-yl)propyl]-2-(2-oxa-6-azaspiro[3.4]oct-6-yl)-3-phenylquinoxaline-6-carboxamide], in assay [1] (setting [3]), the IC50 is 500 to 1000 nM. Also, the inhibition at 1 µM in assay [1] (compound concentration 1 μM) is 62%; in assay [2] (setting [5]), -6%.

`O=C(c1ccc2nc(-c3ccc(F)cc3)c(-c3ccc(F)cc3)nc2c1)N1CCc2cn[nH]c2C1` [Compound I-244, [2,3-bis(4-fluorophenyl)quinoxalin-6-yl](1,4,5,7-tetrahydro-6H-pyrazolo[3,4-c]pyridin-6-yl)methanone]: in assay [1] (setting [3]), the IC50 was 2000 to 10000 nM. Besides, the inhibition at 1 µM worked out at 33% in assay [1] (compound concentration 1 μM) and 96% in assay [2] (setting [5]).

In the case of `COc1cc(OC)cc(-c2nc3cc(C(=O)NCCCn4ccnc4)ccc3nc2-c2ccccc2)c1` [Compound I-245, 3-(3,5-dimethoxyphenyl)-N-[3-(1H-imidazol-1-yl)propyl]-2-phenylquinoxaline-6-carboxamide], the IC50 in assay [1] (setting [3]) was 500 to 1000 nM. The inhibition at 1 µM in assay [1] (compound concentration 1 μM) was 62%; in assay [2] (setting [5]), -8%.

On to `O=C(NCCCn1ccnc1)c1ccc2nc(-c3cccs3)c(-c3ccccc3)nc2c1` [Compound I-247, N-[3-(1H-imidazol-1-yl)propyl]-3-phenyl-2-(2-thienyl)quinoxaline-6-carboxamide], for which the IC50 in assay [1] (setting [3]) was in the range of 500 to 1000 nM. In addition, the values for the inhibition at 1 µM in assay [1] (compound concentration 1 μM) and in assay [2] (setting [5]) were 58% and -5%, respectively.

As to `CC(=O)Nc1cccc(-c2nc3cc(C(=O)NCCCn4ccnc4)ccc3nc2-c2ccccc2)c1` [Compound I-248, 3-(3-acetamidophenyl)-N-[3-(1H-imidazol-1-yl)propyl]-2-phenylquinoxaline-6-carboxamide], the IC50 in assay [1] (setting [3]) was in the range of 2000 to 10000 nM. In addition, the results for the inhibition at 1 µM in assay [1] (compound concentration 1 μM) and in assay [2] (setting [5]) were 29% and 2%, respectively.

On to `O=C(NCCCn1ccnc1)c1ccc2nc(N3CCN4C(=O)CCC4C3)c(-c3ccccc3)nc2c1` (stereo not drawn) [Compound I-250, N-[3-(1H-imidazol-1-yl)propyl]-2-(6-oxohexahydropyrrolo[1,2-a]pyrazin-2(1H)-yl)-3-phenylquinoxaline-6-carboxamide], for which the IC50 in assay [1] (setting [3]) fell in the range of 100 to 500 nM. Also, the values for the inhibition at 1 µM in assay [1] (compound concentration 1 μM) and in assay [2] (setting [5]) were 86% and -6%, respectively.

As for `O=C(NCCCn1ccnc1)c1ccc2nc(-c3ccccc3)c(-c3ccncc3)nc2c1` [Compound I-251, N-[3-(1H-imidazol-1-yl)propyl]-2-phenyl-3-(pyridin-4-yl)quinoxaline-6-carboxamide], the IC50 in assay [1] (setting [3]) fell in the range of 100 to 500 nM. The inhibition at 1 µM stood at 65% in assay [1] (compound concentration 1 μM) and 1% in assay [2] (setting [5]).

As to `O=C(NCCCn1ccnc1)c1ccc2nc(-c3ccccc3)c(-c3ccc4c(c3)CCO4)nc2c1` [Compound I-252, 3-(2,3-dihydro-1-benzofuran-5-yl)-N-[3-(1H-imidazol-1-yl)propyl]-2-phenylquinoxaline-6-carboxamide], in assay [1] (setting [3]), the IC50 was 500 to 1000 nM. Further, the inhibition at 1 µM in assay [1] (compound concentration 1 μM) came out at 53%; in assay [2] (setting [5]) it was 2%.

Take `CC(C)Oc1nc2ccc(C(=O)NCCCc3ncc[nH]3)cc2nc1-c1ccc(F)cc1` [Compound I-253, 3-(4-Fluorophenyl)-N-[3-(1H-imidazol-2-yl)propyl]-2-isopropoxyquinoxaline-6-carboxamide]: the IC50 in assay [1] (setting [3]) was less than 100 nM. For the same molecule, the inhibition at 1 µM in assay [1] stood at 93%. In addition, the inhibition at 1.667 µM in assay [2] (setting [4]) was 2%.

`CC(=O)Nc1ccc(-c2nc3ccc(C(=O)NCCCn4ccnc4)cc3nc2-c2ccccc2)cc1` [Compound I-254, 2-(4-acetamidophenyl)-N-[3-(1H-iniidazol-1-yl)propyl]-3-phenylquinoxaline-6-carboxamide]: the IC50 in assay [1] (setting [3]) fell in the range of 100 to 500 nM. Also, the inhibition at 1 µM is 84% in assay [1] (compound concentration 1 μM) and -8% in assay [2] (setting [5]).

Turning to `O=C(NCCCc1ncc[nH]1)c1ccc2nc(N3CCC(N4CCOCC4)CC3)c(-c3ccc(Cl)cc3)nc2c1` [Compound I-255, 3-(4-chlorophenyl)-N-[3-(1H-imidazol-2-yl)propyl]-2-[4-(morpholin-4-yl)piperidin-1-yl]quinoxaline-6-carboxamide], the IC50 in assay [1] (setting [3]) was less than 100 nM. In assay [1] (compound concentration 1 μM), the inhibition at 1 µM is greater than 99%. Besides, in assay [2] (setting [4]), the inhibition at 1.667 µM was 2%.

`O=C(NCCCc1ncc[nH]1)c1ccc2nc(N3CCSCC3)c(-c3ccc(F)cc3)nc2c1` [Compound I-256, 3-(4-fluorophenyl)-N-[3-(1H-imidazol-2-yl)propyl]-2-(thiomorpholin-4-yl)quinoxaline-6-carboxamide]: in assay [1] (setting [3]), the IC50 was less than 100 nM. Moreover, in assay [1] (compound concentration 1 μM), the inhibition at 1 µM worked out at 97%. Moreover, the inhibition at 1.667 µM in assay [2] (setting [4]) is 2%.

For `O=C(NCCCn1ccnc1)c1ccc2nc(-c3ccccc3Cl)c(-c3ccccc3)nc2c1` [Compound I-257, 2-(2-chlorophenyl)-N-[3-(1H-imidazol-1-yl)propyl]-3-phenylquinoxaline-6-carboxamide], the IC50 in assay [1] (setting [3]) is 100 to 500 nM. Moreover, the inhibition at 1 µM in assay [1] (compound concentration 1 μM) was 77%; in assay [2] (setting [5]) it was -8%.

With `O=C(NCCCn1ccnc1)c1ccc2nc(-c3ccc4nccn4c3)c(-c3ccccc3)nc2c1` [Compound I-258, N-[3-(1H-imidazol-1-yl)propyl]-2-(imidazo[1,2-a]pyridin-6-yl)-3-phenylquinoxaline-6-carboxamide], the IC50 in assay [1] (setting [3]) fell in the range of 100 to 500 nM. Further, the inhibition at 1 µM was 67% in assay [1] (compound concentration 1 μM) and -8% in assay [2] (setting [5]).
